These results are taken from patent publication US9212182B2, “Bicyclic sulfonamide compounds as sodium channel inhibitors” (AMGEN INC., priority 2013, dated 2015).

The target of this experiment is Nav 1.7 (Homo sapiens (Human), UniProt Q15858). In words: in-vitro Nav 1.7 PX (IC50). The class given is cell-based.

Like-named read-outs stand apart in the source and are kept apart here.

Sequence of Nav 1.7 (Q15858 whole entry): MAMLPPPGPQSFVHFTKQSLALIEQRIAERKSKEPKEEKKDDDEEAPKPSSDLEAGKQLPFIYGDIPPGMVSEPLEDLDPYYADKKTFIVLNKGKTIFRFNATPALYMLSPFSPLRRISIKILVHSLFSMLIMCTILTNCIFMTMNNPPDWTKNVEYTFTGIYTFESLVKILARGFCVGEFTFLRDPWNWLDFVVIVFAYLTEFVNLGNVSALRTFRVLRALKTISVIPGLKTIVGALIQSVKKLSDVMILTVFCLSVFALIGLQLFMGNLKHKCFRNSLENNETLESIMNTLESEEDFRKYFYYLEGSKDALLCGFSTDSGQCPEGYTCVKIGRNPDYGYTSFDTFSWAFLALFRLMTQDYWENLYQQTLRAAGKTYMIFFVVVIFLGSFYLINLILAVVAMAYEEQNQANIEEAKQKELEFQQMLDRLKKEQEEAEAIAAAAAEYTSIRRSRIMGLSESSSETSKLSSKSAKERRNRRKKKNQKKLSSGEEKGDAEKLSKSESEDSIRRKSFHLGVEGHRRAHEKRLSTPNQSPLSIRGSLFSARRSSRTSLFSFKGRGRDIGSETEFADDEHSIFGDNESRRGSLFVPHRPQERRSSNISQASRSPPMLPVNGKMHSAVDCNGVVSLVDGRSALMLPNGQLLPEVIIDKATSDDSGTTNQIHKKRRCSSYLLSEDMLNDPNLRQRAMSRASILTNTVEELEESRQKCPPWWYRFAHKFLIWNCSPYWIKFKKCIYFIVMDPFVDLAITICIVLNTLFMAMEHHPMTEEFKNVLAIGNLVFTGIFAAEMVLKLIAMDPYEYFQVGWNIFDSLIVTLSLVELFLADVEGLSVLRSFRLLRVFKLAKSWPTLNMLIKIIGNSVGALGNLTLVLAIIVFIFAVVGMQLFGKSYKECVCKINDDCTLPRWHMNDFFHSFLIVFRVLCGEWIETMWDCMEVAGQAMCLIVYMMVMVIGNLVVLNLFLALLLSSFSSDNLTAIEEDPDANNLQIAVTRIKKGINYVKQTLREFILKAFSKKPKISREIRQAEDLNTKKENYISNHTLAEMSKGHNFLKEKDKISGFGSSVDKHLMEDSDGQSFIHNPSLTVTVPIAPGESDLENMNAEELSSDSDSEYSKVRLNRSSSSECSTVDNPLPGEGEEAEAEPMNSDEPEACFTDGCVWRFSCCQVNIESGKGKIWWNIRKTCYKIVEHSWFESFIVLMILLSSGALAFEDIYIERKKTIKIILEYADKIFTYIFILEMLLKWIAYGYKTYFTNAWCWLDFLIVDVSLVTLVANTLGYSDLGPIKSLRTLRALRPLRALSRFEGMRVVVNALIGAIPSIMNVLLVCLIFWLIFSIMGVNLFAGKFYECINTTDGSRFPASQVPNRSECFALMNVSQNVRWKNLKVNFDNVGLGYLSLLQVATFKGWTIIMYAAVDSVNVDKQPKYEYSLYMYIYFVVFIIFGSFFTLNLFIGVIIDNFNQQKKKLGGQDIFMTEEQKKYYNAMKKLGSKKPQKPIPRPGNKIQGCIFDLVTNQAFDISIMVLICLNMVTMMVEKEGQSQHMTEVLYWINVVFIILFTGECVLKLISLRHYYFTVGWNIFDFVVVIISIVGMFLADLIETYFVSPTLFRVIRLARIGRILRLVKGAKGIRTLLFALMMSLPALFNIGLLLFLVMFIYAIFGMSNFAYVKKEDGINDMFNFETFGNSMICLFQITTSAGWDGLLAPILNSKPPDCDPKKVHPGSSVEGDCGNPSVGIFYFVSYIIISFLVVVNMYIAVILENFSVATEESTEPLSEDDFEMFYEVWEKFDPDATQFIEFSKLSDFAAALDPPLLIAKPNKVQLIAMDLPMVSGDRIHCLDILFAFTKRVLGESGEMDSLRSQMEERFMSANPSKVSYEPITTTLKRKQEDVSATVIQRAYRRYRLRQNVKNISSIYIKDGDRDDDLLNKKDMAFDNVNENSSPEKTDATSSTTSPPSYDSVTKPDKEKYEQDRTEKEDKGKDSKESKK

For the molecule `COc1cc(-c2cc(F)cc(C#N)c2)ccc1-n1c(=O)ccc2cc(S(=O)(=O)Nc3ccon3)ccc21` [Example 1021, 1-(3′-cyano-5′-fluoro-3-methoxy-4-biphenylyl)-N-3-isoxazolyl-2-oxo-1,2-dihydro-6-quinolinesulfonamide], half-maximal inhibition (in-vitro Nav 1.7 PX data) (IC50) was put at 105 nM.

Consider `O=c1ccc2cc(S(=O)(=O)Nc3cccnn3)ccc2n1-c1ccc(-c2cc(F)cc(F)c2)cc1C1CC1` [Example 1042, 1-(3-cyclopropyl-3′,5′-difluoro-4-biphenylyl)-2-oxo-N-3-pyridazinyl-1,2-dihydro-6-quinolinesulfonamide], for which the IC50 (in general, the midpoint of a concentration-inhibition curve) (in-vitro Nav 1.7 PX data (PatchXpress)) was found to be 195 nM. That is a sub-micromolar value.

`COc1cc(-c2cccnc2)c(F)cc1-n1c(=O)ccc2cc(S(=O)(=O)Nc3ccon3)ccc21` [Example 404, 1-(5-fluoro-2-methoxy-4-(3-pyridinyl)phenyl)-N-3-isoxazolyl-2-oxo-1,2-dihydro-6-quinolinesulfonamide] gave an IC50 (in-vitro PatchXpress (PX)) of 4300 nM. That is a single-digit micromolar value.

In turn, `COc1nc(NC[C@H]2CCC(C)(C)O2)c(Cl)cc1-n1c(=O)ccc2cc(S(=O)(=O)Nc3ccon3)ccc21` [Example 1232, 1-(5-chloro-6-((((2R)-5,5-dimethyltetrahydro-2-furanyl)methyl)amino)-2-methoxy-3-pyridinyl)-N-3-isoxazolyl-2-oxo-1,2-dihydro-6-quinolinesulfonamide, 1-(5-chloro-6-((((2S)-5,5-dimethyltetrahydro-2-furanyl)methyl)amino)-2-methoxy-3-pyridinyl)-N-3-isoxazolyl-2-oxo-1,2-dihydro-6-quinolinesulfonamide] had an IC50 of 2940 nM.

For the molecule `COc1cc(Cl)c(-c2cc(F)cc(Cl)c2)cc1-n1c(=O)ccc2cc(S(=O)(=O)Nc3ccon3)ccc21` (atropisomer, axis not shown; (P)) [Example 614, (P)-1-(3′,6-dichloro-5′-fluoro-4-methoxy-3-biphenylyl)-N-3-isoxazolyl-2-oxo-1,2-dihydro-6-quinolinesulfonamide], the IC50 (in-vitro Nav 1.7 PX data) is 9 nM. In other words, the single-digit nanomolar range.

For `COc1cc(-c2ccc(Cl)c(C)c2)c(F)cc1-n1c(=O)c(OC)cc2cc(S(=O)(=O)Nc3ccon3)ccc21` (atropisomer, axis not shown; (P)) [Example 414, (P)-1-(4′-chloro-2-fluoro-5-methoxy-3′-methyl-[1,1′-biphenyl]-4-yl)-N-(isoxazol-3-yl)-3-methoxy-2-oxo-1,2-dihydroquinoline-6-sulfonamide], 13 nM corresponded to half-maximal inhibition (IC50). This counts as double-digit nanomolar.

`COc1nc(-c2cc(F)cc(Cl)c2)c(Cl)cc1-n1c(=O)ccc2cc(S(=O)(=O)Nc3ccon3)ccc21` [Example 1071, 1-(5-chloro-6-(3-chloro-5-fluorophenyl)-2-methoxy-3-pyridinyl)-N-3-isoxazolyl-2-oxo-1,2-dihydro-6-quinolinesulfonamide] returned an IC50 (in-vitro Nav 1.7 PX data) of 348 nM.

For the molecule `COc1cc(-c2cc(F)cc(Cl)c2)c(F)cc1-n1c(=O)ccc2cc(S(=O)(=O)Nc3ccsn3)ccc21` [Example 921, 1-(3′-chloro-2,5′-difluoro-5-methoxy-4-biphenylyl)-N-3-isothiazolyl-2-oxo-1,2-dihydro-6-quinolinesulfonamide], where the note is “in-vitro Nav 1.7 PX data”, the IC50 was found to be 37 nM.

For the molecule `COc1cc(-c2ccc(-n3c(=O)cnc4cc(S(=O)(=O)Nc5ccon5)ccc43)c(OC)c2)ccc1C` [Example 1197, 1-(3,3′-dimethoxy-4′-methyl-4-biphenylyl)-N-3-isoxazolyl-2-oxo-1,2-dihydro-6-quinoxalinesulfonamide], half-maximal inhibition (IC50) required 146 nM. That is a sub-micromolar value.

Consider `COc1cc(-c2cnc(OC)c(Cl)c2)c(F)cc1-n1c(=O)ccc2cc(S(=O)(=O)Nc3ncco3)ccc21` (atropisomer, axis not shown; (P)) [Example 1158, (P)-1-(4-(5-chloro-6-methoxy-3-pyridinyl)-5-fluoro-2-methoxyphenyl)-N-1,3-oxazol-2-yl-2-oxo-1,2-dihydro-6-quinolinesulfonamide], for which the half-maximal inhibitory concentration (IC50) (in-vitro Nav 1.7 PX data, Table 4) was 89 nM.

In turn, `COc1cc(-c2cc(F)cc(Cl)c2)c(C)cc1-n1c(=O)ccc2cc(S(=O)(=O)Nc3ccon3)ccc21` (atropisomer, axis not shown; (P)) [Example 417, (P)-1-(3′-chloro-5′-fluoro-5-methoxy-2-methyl-4-biphenylyl)-N-3-isoxazolyl-2-oxo-1,2-dihydro-6-quinolinesulfonamide] registered an IC50 of 9 nM.

Take `COc1ccc(-c2cncc(Cl)c2)cc1-n1c(=O)ccc2cc(S(=O)(=O)Nc3ccon3)ccc21` [Example 494, 1-(5-(5-chloro-3-pyridinyl)-2-methoxyphenyl)-N-3-isoxazolyl-2-oxo-1,2-dihydro-6-quinolinesulfonamide]: the IC50 worked out at 682 nM.

In the case of `COc1cc(-c2ccc(F)c(C)c2)c(F)cc1-n1c(=O)ccc2cc(S(=O)(=O)Nc3ccnc(C)n3)ccc21` [Example 944, 1-(2,4′-difluoro-5-methoxy-3′-methyl-4-biphenylyl)-N-(2-methyl-4-pyrimidinyl)-2-oxo-1,2-dihydro-6-quinolinesulfonamide], under “in-vitro Nav 1.7 PX data”, 27 nM corresponded to half-maximal inhibition (IC50). In other words, the double-digit nanomolar range.

For the setting “in-vitro Nav 1.7 PX data”, `COc1cc(Cl)c(-c2cccc(F)c2)cc1-n1c(=O)ccc2cc(S(=O)(=O)Nc3ccon3)ccc21` (atropisomer, axis not shown; (P)) [Example 608, (P)-1-(6-chloro-3′-fluoro-4-methoxy-3-biphenylyl)-N-3-isoxazolyl-2-oxo-1,2-dihydro-6-quinolinesulfonamide] returned an IC50 of 12 nM.

As to `COc1cc(-c2cc(OC)c(-n3c(=O)ccc4cc(S(=O)(=O)Nc5ncc(F)cn5)ccc43)cc2F)ccc1F` [Example 1010, 1-(2,4′-difluoro-3′,5-dimethoxy-4-biphenylyl)-N-(5-fluoro-2-pyrimidinyl)-2-oxo-1,2-dihydro-6-quinolinesulfonamide], the IC50 (in-vitro Nav 1.7 PX data) came to 74 nM. Against the preceding molecule, the IC50 is about 6.2-fold higher.

On to `COc1cc(-c2cc(C)cnc2OC)c(F)cc1-n1c(=O)ccc2cc(S(=O)(=O)Nc3ccon3)ccc21` [Example 715, 1-(5-fluoro-2-methoxy-4-(2-methoxy-5-methyl-3-pyridinyl)phenyl)-N-3-isoxazolyl-2-oxo-1,2-dihydro-6-quinolinesulfonamide], for which the IC50 (in-vitro Nav 1.7 PX data) was determined as 151 nM.

As to `COc1nc(-c2cccc(C)c2)c(Cl)cc1-n1c(=O)ccc2cc(S(=O)(=O)Nc3ccon3)ccc21` [Example 1089, 1-(5-chloro-2-methoxy-6-(3-methylphenyl)-3-pyridinyl)-N-3-isoxazolyl-2-oxo-1,2-dihydro-6-quinolinesulfonamide], half-maximal inhibition (in-vitro Nav 1.7 PX data) (IC50) required 3240 nM.

`COc1cc(-c2cccc(Cl)c2C)c(F)cc1-n1c(=O)ccc2cc(S(=O)(=O)Nc3ccon3)ccc21` [Example 712, 1-(3′-chloro-2-fluoro-5-methoxy-2′-methyl-4-biphenylyl)-N-3-isoxazolyl-2-oxo-1,2-dihydro-6-quinolinesulfonamide] gave an IC50 (in-vitro Nav 1.7 PX data) of 6 nM.

In the case of `COc1cc(-c2ccc(Cl)c(C)c2)c(Cl)cc1-n1c(=O)ccc2cc(S(=O)(=O)Nc3ccncn3)ccc21` (atropisomer, axis not shown; (M)) [Example 368, (M)-1-(2,4′-dichloro-5-methoxy-3′-methyl-4-biphenylyl)-2-oxo-N-4-pyrimidinyl-1,2-dihydro-6-quinolinesulfonamide], half-maximal inhibition (in-vitro PatchXpress (PX)) (IC50) was put at 677 nM. That is a sub-micromolar value.

`COc1cc(-c2ccc(F)c(F)c2)c(F)cc1-n1c(=O)cnc2cc(S(=O)(=O)Nc3ccon3)ccc21` [Example 1179, N-3-isoxazolyl-2-oxo-1-(2,3′,4′-trifluoro-5-methoxy-4-biphenylyl)-1,2-dihydro-6-quinoxalinesulfonamide] displayed an IC50 of 62 nM.

Consider `COc1cc(-c2cccc(C(F)(F)F)c2)ccc1-n1c(=O)ccc2cc(S(=O)(=O)Nc3cnc(C)cn3)ccc21` [Example 949, 1-(3-methoxy-3′-(trifluoromethyl)-4-biphenylyl)-N-(5-methyl-2-pyrazinyl)-2-oxo-1,2-dihydro-6-quinolinesulfonamide], for which the half-maximal inhibitory concentration (IC50) (in-vitro Nav 1.7 PX data) came out at 1240 nM.

For the molecule `COc1cc(-c2cccc(F)c2)c(Cl)cc1-n1c(=O)ccc2cc(S(=O)(=O)Nc3ccon3)c(F)cc21` (atropisomer, axis not shown; (M)) [Example 357, (M)-1-(2-chloro-3′-fluoro-5-methoxy-[1,1′-biphenyl]-4-yl)-7-fluoro-N-(isoxazol-3-yl)-2-oxo-1,2-dihydroquinoline-6-sulfonamide], the IC50 is 40 nM.

The molecule `COc1ccc(-c2cccc(F)c2)cc1-n1c(=O)ccc2cc(S(=O)(=O)Nc3ccon3)ccc21` [Example 482, 1-(3′-fluoro-4-methoxy-3-biphenylyl)-N-3-isoxazolyl-2-oxo-1,2-dihydro-6-quinolinesulfonamide] came in with an IC50 of 80 nM. Against the preceding molecule, the IC50 is about 2-fold higher.

Consider `COc1cc(-c2ccc(F)c(C#N)c2)ccc1-n1c(=O)ccc2cc(S(=O)(=O)Nc3ccon3)ccc21` [Example 1020, 1-(3′-cyano-4′-fluoro-3-methoxy-4-biphenylyl)-N-3-isoxazolyl-2-oxo-1,2-dihydro-6-quinolinesulfonamide], for which inhibition (in-vitro Nav 1.7 PX data) was half-maximal at 82 nM (IC50).

Consider `COc1cc(-c2cccc(OC(F)F)c2)c(F)cc1-n1c(=O)ccc2cc(S(=O)(=O)Nc3cc(C)ncn3)ccc21` (atropisomer, axis not shown; (P)) [Example 1173, (P)-1-(3′-(difluoromethoxy)-2-fluoro-5-methoxy-4-biphenylyl)-N-(6-methyl-4-pyrimidinyl)-2-oxo-1,2-dihydro-6-quinolinesulfonamide], for which the IC50 was determined as 146 nM.

On to `COc1cc(-c2ccc(C)c(Cl)c2)c(F)cc1-n1c(=O)ccc2cc(S(=O)(=O)Nc3ccon3)ccc21` (atropisomer, axis not shown; (P)) [Example 528, (P)-1-(3′-chloro-2-fluoro-5-methoxy-4′-methyl-4-biphenylyl)-N-3-isoxazolyl-2-oxo-1,2-dihydro-6-quinolinesulfonamide], for which, where the note is “in-vitro PatchXpress (PX)”, the IC50 is 7 nM.

Molecule `COc1cc(-c2cccc(C(F)(F)F)c2)ccc1-n1c(=O)ccc2cc(S(=O)(=O)Nc3cncc(C)n3)ccc21` [Example 950, 1-(3-methoxy-3′-(trifluoromethyl)-4-biphenylyl)-N-(6-methyl-2-pyrazinyl)-2-oxo-1,2-dihydro-6-quinolinesulfonamide] gave an IC50 (in-vitro Nav 1.7 PX data) of 99 nM.

`COc1cc(-c2ccc(C)c(F)c2)c(F)cc1-n1c(=O)ccc2cc(S(=O)(=O)Nc3cccnn3)ccc21` [Example 1128, 1-(2,3′-difluoro-5-methoxy-4′-methyl-4-biphenylyl)-2-oxo-N-3-pyridazinyl-1,2-dihydro-6-quinolinesulfonamide] yielded an IC50 (in-vitro Nav 1.7 PX data) of 36 nM. This IC50 is about 2.8-fold lower than that of the molecule before.
